Our source for the IC50 values is ChEMBL document CHEMBL1140394, “Inhibition of Src kinase activity by 7-[(2,4-dichloro-5-methoxyphenyl)amino]-2-heteroaryl-thieno[3,2-b]pyridine-6-carbonitriles” (Bioorg Med Chem Lett, 2005).

pIC50: −log10 of the molar value.

Experiment [1] addresses Serine/threonine-protein kinase AKT (Homo sapiens, UniProt P31751+Q9Y243+P31749). The experiment can be described thus: Inhibitory activity against AKT. The experiment is classed as functional.
Experiment [2] deals with T1, Proto-oncogene tyrosine-protein kinase Src (Homo sapiens, UniProt P12931). The experiment is described as follows: Inhibitory activity against non-receptor tyrosine kinase Src in cell assay. The class given is functional.
Experiment [3] has as its target T2, 3-phosphoinositide-dependent protein kinase 1 (Homo sapiens, UniProt O15530).
T2 sequence (O15530 whole entry): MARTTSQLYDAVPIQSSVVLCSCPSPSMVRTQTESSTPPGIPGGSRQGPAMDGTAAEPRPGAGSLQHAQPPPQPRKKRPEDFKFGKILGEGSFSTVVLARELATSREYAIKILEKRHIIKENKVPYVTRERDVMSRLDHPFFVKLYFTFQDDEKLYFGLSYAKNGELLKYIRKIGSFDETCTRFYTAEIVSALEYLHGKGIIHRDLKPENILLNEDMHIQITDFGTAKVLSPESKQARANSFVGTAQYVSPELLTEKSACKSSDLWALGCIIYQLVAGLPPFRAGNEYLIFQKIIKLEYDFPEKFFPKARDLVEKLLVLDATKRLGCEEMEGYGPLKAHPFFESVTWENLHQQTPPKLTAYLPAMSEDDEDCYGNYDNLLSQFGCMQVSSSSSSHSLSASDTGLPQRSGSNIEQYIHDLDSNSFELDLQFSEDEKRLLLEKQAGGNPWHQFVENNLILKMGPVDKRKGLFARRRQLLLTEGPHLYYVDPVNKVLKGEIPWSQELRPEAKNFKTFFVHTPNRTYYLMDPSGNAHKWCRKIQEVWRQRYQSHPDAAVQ
The experiment is described as follows: Inhibitory activity against PDK1. The experiment is classed as functional.

Experiment [4] has as its target T1, Proto-oncogene tyrosine-protein kinase Src. The experiment is described as follows: Inhibitory activity against non-receptor tyrosine kinase Src in enzyme assay.
In experiment [5] the target is Serine/threonine-protein kinase RAF and Dual specificity mitogen-activated protein kinase kinase 1 (Raf/MEK) (Homo sapiens, UniProt P04049+Q02750). The experiment is described as follows: Inhibitory activity against Raf/MEK. The class given is functional.
In experiment [6] the target is Cyclin-dependent kinase 4 (Homo sapiens, UniProt P11802). The experiment can be described thus: Inhibitory activity against CDK4. The experiment is classed as functional.
For experiment [7], the target named is Inhibitor of NF-kappa-B kinase (IKK) (Homo sapiens, UniProt O14920+O15111+Q9Y6K9). The experiment can be described thus: Inhibitory activity against IKK. The class given is functional.
Sequence of Inhibitor of NF-kappa-B kinase (IKK) (O14920 whole entry): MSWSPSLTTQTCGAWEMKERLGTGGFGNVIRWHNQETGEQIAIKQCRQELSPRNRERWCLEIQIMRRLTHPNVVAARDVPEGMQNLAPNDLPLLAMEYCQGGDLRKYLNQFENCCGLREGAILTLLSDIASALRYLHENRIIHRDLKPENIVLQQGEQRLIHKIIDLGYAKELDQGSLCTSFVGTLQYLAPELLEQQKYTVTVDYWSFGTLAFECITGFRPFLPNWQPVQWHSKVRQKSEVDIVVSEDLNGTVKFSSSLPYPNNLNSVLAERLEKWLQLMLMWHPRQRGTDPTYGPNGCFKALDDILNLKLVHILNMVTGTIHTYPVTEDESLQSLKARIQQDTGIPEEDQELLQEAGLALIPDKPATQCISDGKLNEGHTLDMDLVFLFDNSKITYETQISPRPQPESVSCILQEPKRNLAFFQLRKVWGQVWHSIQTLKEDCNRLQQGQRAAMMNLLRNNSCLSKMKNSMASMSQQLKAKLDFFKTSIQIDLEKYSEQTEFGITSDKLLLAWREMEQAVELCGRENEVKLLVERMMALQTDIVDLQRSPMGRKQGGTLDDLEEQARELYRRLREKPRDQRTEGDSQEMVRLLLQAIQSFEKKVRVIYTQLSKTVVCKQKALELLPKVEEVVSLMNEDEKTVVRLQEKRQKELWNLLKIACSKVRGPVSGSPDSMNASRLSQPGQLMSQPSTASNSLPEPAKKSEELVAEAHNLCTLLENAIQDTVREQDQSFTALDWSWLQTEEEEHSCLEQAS
Sequence of Inhibitor of NF-kappa-B kinase (IKK) (O15111 whole entry): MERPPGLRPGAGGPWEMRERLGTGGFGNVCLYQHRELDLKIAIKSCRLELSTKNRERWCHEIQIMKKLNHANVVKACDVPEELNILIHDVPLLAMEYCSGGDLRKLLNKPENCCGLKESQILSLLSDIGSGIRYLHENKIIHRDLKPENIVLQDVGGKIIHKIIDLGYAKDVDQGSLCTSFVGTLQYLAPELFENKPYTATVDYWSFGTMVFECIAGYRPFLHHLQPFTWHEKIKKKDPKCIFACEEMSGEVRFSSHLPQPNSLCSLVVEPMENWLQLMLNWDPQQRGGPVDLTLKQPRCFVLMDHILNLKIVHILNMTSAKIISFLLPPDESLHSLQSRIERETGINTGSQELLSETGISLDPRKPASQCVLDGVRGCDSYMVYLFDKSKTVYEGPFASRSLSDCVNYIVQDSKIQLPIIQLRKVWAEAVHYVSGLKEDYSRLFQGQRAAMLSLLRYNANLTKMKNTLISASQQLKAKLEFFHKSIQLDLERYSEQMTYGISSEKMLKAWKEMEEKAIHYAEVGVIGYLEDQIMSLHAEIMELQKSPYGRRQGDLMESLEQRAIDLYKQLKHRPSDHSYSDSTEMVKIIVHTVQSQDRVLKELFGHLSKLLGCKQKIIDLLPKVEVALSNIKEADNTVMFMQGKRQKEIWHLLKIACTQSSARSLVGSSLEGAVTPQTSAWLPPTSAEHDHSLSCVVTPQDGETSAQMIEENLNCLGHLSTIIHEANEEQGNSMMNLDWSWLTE
Sequence of Inhibitor of NF-kappa-B kinase (IKK) (Q9Y6K9 whole entry): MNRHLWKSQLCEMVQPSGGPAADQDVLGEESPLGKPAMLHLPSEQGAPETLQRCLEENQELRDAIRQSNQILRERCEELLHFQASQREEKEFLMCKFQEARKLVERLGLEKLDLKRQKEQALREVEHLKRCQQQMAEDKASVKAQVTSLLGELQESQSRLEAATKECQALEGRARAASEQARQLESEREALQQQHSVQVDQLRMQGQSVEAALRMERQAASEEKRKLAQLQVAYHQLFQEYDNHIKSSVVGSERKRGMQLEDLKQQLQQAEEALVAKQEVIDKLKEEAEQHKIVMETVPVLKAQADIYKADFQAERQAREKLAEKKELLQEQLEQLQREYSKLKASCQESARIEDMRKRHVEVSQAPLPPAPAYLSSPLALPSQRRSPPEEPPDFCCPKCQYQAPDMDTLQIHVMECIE

T1 sequence (P12931 2-536 limits assumed): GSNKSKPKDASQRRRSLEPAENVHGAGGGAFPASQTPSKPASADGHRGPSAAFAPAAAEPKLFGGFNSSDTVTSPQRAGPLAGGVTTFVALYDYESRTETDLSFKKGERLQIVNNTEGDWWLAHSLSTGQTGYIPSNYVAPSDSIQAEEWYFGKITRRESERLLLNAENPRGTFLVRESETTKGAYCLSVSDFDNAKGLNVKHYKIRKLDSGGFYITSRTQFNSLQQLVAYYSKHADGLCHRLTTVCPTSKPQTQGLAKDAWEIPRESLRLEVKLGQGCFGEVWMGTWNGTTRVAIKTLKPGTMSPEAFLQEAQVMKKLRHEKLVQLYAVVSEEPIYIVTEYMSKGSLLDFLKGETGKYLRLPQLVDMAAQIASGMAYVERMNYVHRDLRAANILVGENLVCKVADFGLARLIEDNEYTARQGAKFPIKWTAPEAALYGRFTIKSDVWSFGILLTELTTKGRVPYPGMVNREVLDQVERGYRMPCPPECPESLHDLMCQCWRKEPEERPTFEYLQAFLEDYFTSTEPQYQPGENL
Sequence of Cyclin-dependent kinase 4 (P11802 whole entry): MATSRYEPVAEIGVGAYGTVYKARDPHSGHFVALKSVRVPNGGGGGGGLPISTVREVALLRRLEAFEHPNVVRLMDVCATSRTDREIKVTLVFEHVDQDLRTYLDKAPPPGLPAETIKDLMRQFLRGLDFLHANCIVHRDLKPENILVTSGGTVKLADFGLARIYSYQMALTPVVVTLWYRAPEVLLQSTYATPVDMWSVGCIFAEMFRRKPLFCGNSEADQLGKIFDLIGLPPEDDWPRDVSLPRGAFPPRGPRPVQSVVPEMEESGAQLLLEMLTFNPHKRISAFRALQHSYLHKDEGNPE

Usually IC50 stands for the midpoint of a concentration-inhibition curve. A lower IC50 goes with greater potency. A word on the pIC50: it is the negative decadic logarithm of the IC50, by convention in mol/L. A lower pIC50 goes with a high IC50. In the case of `COc1cc(Nc2c(C#N)cnc3cc(-c4ccc(CN5CCN(C)CC5)cn4)sc23)c(Cl)cc1Cl`, the IC50 is greater than 10000 nM in experiment [1] and 1600 nM in experiment [5]. The pIC50 in experiment [2] was 6.38; in experiment [3], less than 5.00; in experiment [4], 7.89; in experiment [6] it was less than 5.00; in experiment [7] it was less than 5.00.
